# Data reported in US20230365530A1, “QUINAZOLINE-2,4-DIAMINE DERIVATIVE AND PHARMACEUTICAL COMPOSITION FOR PREVENTING OR TREATING CANCER COMPRISING SAME AS ACTIVE INGREDIENT” (THE ASEAN FOUNDATION, priority 2020, published 2023).
# Target: EHMT2 (Euchromatic histone-lysine N-methyltransferase 2) (Homo sapiens (Human), UniProt Q96KQ7)
# Assay: EHMT2 enzyme inhibition, LANCE TR-FRET
# Type: biochemical
# Conditions: histone H3 peptide, 1 hour at room temperature
# Procedure: In order to analyze the enzyme inhibitory efficacy of the compounds of Examples 1 to 89, EHMT2 (Euchromatic histone-lysine N-methyltransferase 2) enzyme activity was measured using the LANCE TR-FRET™ analysis method of Perkin Elmer. When the EHMT2 enzyme is activated, the 9th lysine residue of the biotinylated-histone peptide is methylated and the EU-conjugated antibody is combined to the methylated histone peptide. Then, when the complex is irradiated with light of excitation wavelength, the complex emits light having a wavelength of 665 nm through FRET phenomenon. Accordingly, fluorescence was measured, and IC50 values were calculated through a software to evaluate the EHMT2 enzyme activity inhibitory effect of the compounds of Examples 1 to 89.
# Specific experimental methods are as follows. First, the compounds of Examples 1 to 89 of 1 nM to 100 μM (4× conc.) were put into a 384 well plate (25 μL/well), and 2 μM EEMT2/G9a enzyme (4× conc.) was put into the 384 well plate (25 μL/well). The plate was then centrifuged at 1,500 rpm for 5 seconds after sealing the plate with plate sealing foil. After incubating the EHMT2/G9a enzyme, SAM, and the compounds of Examples above at room temperature for 10 minutes, 2 μM histone H3 peptide (4× conc.) was added to the 384-well plate (25 μL/well). After sealing the plate with plate sealing foil and centrifuging at 1,500 rpm for 5 seconds, an enzymatic reaction was performed at room temperature for 1 hour. Upon completion of the enzyme reaction, 5 μL each of 200 nM Ulight™-Streptavidin (4× conc.) and 8 nM Eu-antibody (4× conc.) was added to each well of the plate. The plate was sealed with plate sealing foil, centrifuged at 1,500 rpm for 5 seconds and reacted at room temperature for 1 hour. The signal values were measured with Envision (Ex 320 nm, Em 665 nm), and all background values obtained by reacting without enzyme were deleted from the measured raw data values. Then, the EHMT2 enzyme activity inhibitory effect of the compounds of Examples 1 to 89 was converted into % values, and compared with the EHMT2 activity when treated with 4% DMSO vehicle (=0 nM compound) as 100%.
# Chain of EHMT2 (Euchromatic histone-lysine N-methyltransferase 2) (Q96KQ7 whole entry): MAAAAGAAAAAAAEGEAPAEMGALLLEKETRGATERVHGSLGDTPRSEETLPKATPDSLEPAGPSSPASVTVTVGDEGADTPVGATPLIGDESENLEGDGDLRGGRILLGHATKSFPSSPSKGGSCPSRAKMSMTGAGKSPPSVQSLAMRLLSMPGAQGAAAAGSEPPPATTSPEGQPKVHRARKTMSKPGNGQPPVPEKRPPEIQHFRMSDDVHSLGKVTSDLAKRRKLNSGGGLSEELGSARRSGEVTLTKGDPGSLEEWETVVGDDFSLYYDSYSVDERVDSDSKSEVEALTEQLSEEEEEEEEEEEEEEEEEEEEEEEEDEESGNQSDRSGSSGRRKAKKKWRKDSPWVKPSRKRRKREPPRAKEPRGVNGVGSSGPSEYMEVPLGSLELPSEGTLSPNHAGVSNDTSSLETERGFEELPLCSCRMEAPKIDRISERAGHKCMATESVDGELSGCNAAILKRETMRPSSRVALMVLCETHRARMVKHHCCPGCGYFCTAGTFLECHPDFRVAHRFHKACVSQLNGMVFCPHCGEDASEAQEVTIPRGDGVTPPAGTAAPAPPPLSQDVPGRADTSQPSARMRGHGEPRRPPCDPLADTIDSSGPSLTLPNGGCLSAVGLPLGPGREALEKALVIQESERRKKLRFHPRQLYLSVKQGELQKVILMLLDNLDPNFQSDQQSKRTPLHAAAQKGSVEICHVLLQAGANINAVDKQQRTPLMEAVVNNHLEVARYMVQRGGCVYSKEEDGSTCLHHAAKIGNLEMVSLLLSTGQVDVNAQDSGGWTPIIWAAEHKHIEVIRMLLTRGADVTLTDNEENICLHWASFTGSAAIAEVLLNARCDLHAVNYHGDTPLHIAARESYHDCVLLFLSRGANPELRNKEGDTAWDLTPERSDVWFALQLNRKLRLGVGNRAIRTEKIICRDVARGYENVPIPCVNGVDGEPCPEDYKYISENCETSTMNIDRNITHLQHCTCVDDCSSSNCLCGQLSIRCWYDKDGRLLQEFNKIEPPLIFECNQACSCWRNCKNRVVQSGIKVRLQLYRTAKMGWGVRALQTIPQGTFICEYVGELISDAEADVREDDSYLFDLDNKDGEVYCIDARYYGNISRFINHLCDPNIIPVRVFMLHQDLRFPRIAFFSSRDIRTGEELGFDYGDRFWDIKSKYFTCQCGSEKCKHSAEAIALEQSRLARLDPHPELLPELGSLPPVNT
row,IC50 [nM],Structure (SMILES)
1,10000 to 100000,"COc1cc2c(NCc3ccncc3)nc(N3CCCCC3)nc2cc1C#CCCN(C)C [Example 32, 7-(4-(dimethylamino)-1-butyne-1-yl)-6-methoxy-2-(piperidine-1-yl)-N-(pyridine-4-ylmethyl)quinazoline-4-amine]"
2,10000 to 100000,"COc1cc2c(NC3CCN(C(C)C)CC3)nc(N3CCCCC3)nc2cc1C#CCCN1CC(F)C1 [Example 33, 7-(4-(3-fluoroazetidine-1-yl)-1-butyne-1-yl)-N-(1-isopropylpiperidine-4-yl)-6-methoxy-2-(piperidine-1-yl)quinazoline-4-amine]"
3,10000 to 100000,COc1cc2c(NCCc3ccncc3)nc(N3CCCCC3)nc2cc1C#CCCN(C)C [Example 34]
4,1000 to 10000,"COc1cc2c(NC3CCN(C(C)C)CC3)nc(N3CCC(F)(F)CC3)nc2cc1C#CCCN1CCCC1 [Example 35, 2-(4,4-difluoropiperidine-1-yl)-N-(1-isopropylpiperidine-4-yl)-6-methoxy-7-(4-(pyrrolidine-1-yl)-1-butyne-1-yl)quinazoline-4-amine]"
5,< 100,COc1cc2c(NC3CCN(C(C)C)CC3)nc(N3CCCCCC3)nc2cc1C#CCCN1CCCC1 [Example 36]
6,100 to 1000,"COc1cc2c(NC3CCN(C(C)C)CC3)nc(N3CCCCCC3)nc2cc1C#CCCN1CCCCC1 [Example 37, 2-(azepane-1-yl)-N-(1-isopropylpiperidine-4-yl)-6-methoxy-7-(4-(piperidine-1-yl)-1-butyne-1-yl)quinazoline-4-amine]"
7,100 to 1000,"COc1cc2c(NC3CCN(C(C)C)CC3)nc(N3CCN(C)CC3)nc2cc1C#CCCN1CCCC1 [Example 38, N-(1-isopropylpiperidine-4-yl)-6-methoxy-2-(4-methylpiperazine-1-yl)-7-(4-(pyrrolidine-1-yl)-1-butyne-1-yl)quinazoline-4-amine]"
8,1000 to 10000,"COc1cc2c(NC3CCN(C(C)C)CC3)nc(N3CCN(C)CC3)nc2cc1C#CCCN1CCCCC1 [Example 39, N-(1-Disopropylpiperidine-4-yl)-6-methoxy-2-(4-methylpiperazine-1-yl)-7-(4-(piperidine-1-yl)-1-butyne-1-yl)quinazoline-4-amine]"
9,100 to 1000,"COc1cc2c(NC3CCN(C(C)C)CC3)nc(N3CCC4(CCCC4)C3)nc2cc1C#CCCN1CCCC1 [Example 40, N-(1-isopropylpiperidine-4-yl)-6-methoxy-7-(4-(pyrrolidine-1-yl)-1-butyne-1-yl)-2-(2-azaspiro[4.4]nonane-2-yl)quinazoline-4-amine]"
10,1000 to 10000,"COc1cc2c(NC3CCN(C(C)C)CC3)nc(N3CCC4(CCCC4)C3)nc2cc1C#CCCN1CCCCC1 [Example 41, N-(1-isopropylpiperidine-4-yl)-6-methoxy-7-(4-(piperidine-1-yl)-1-butyne-1-yl)-2-(2-azaspiro[4.4]nonane-2-yl)quinazoline-4-amine]"
11,< 100,"COc1cc2c(NC3CCN(C(C)C)CC3)nc(N3CCCC3)nc2cc1C#CCCN1CCCCC1 [Example 43, N-(1-isopropylpiperidine-4-yl)-6-methoxy-7-(4-(piperidine-1-yl)-1-butyne-1-yl)-2-(pyrrolidine-1-yl)quinazoline-4-amine]"
12,< 100,"COc1cc2c(NC3CCN(C(C)C)CC3)nc(N(C)C)nc2cc1C#CCCN1CCCCC1 [Example 44, N-(1-isopropylpiperidine-4-yl)-6-methoxy-N2,N2-dimethyl-7-(4-(piperidine-1-yl)-1-butyne-1-yl)quinazoline-2,4-diamine]"
13,< 100,"COc1cc2c(NC3CCN(C(C)C)CC3)nc(N3CCCN(C)CC3)nc2cc1C#CCCN1CCCCC1 [Example 45, N-(1-isopropylpiperidine-4-yl)-6-methoxy-2-(4-methyl1,4-diazepane-1-yl)-7-(4-(piperidine-1-yl)-1-butyne-1-yl)quinazoline-4-amine]"
14,< 100,"COc1cc2c(NC3CCN(C(C)C)CC3)nc(N3C[C@@H]4C[C@@H]4[C@@H]3CO)nc2cc1C#CCCN1CCCC1 [Example 46, ((1S,2R,5R)-3-(4-((1-isopropylpiperidine-4-yl)amino)-6-methoxy-7-(4-(pyrrolidine-1-yl)-1-butyne-1-yl)quinazoline-2-yl)-3-azabicyclo[3.1.0]hexane-2-yl)methanol]"
15,< 100,"COc1cc2c(NC3CCN(C(C)C)CC3)nc(N3C[C@@H]4C[C@@H]4[C@@H]3CO)nc2cc1C#CCCN1CCCCC1 [Example 47, ((1S,2R,5R)-3-(4-((1-isopropylpiperidine-4-yl)amino)-6-methoxy-7-(4-(piperidine-1-yl)-1-butyne-1-yl)quinazoline-2-yl)-3-azabicyclo[3.1.0]hexane-2-yl)methanol]"
16,< 100,"COc1cc2c(NC3CCN(C(C)C)CC3)nc(N3CCCN(C)CC3)nc2cc1C#CCCN1CCCC1 [Example 48, N-(1-isopropylpiperidine-4-yl)-6-methoxy-2-(4-methyl-1,4-diazepane-1-yl)-7-(4-(pyrrolidine-1-yl)-1-butyne-1-yl)quinazoline-4-amine]"
17,< 100,"CCN1CCC(Nc2nc(N3CCCCC3)nc3cc(C#CCCN(C)C)c(OC)cc23)CC1 [Example 50, 7-(4-(dimethylamino)-1-butyne-1-yl)-N-(1-ethylpiperidine-4-yl)-6-methoxy-2-(piperidine-1-yl)quinazoline-4-amine]"
18,< 100,"CCN1CCC(Nc2nc(N3CCCCC3)nc3cc(C#CCCN4CCCC4)c(OC)cc23)CC1 [Example 51, N-(1-ethylpiperidine-4-yl)-6-methoxy-2-(piperidine-1-yl)-7-(4-(pyrrolidine-1-yl)-1-butyne-1-yl)quinazoline-4-amine]"
19,< 100,"COc1cc2c(NC3CCN(C4CC4)CC3)nc(N3CCCCC3)nc2cc1C#CCCN1CCCC1 [Example 53, N-(1-cyclopropylpiperidine-4-yl)-6-methoxy-2-(piperidine-1-yl)-7-(4-(pyrrolidine-1-yl)-1-butyne-1-yl)quinazoline-4-amine]"
20,< 100,"COc1cc2c(NC3CCN(C4CC4)CC3)nc(N3CCCC3)nc2cc1C#CCCN1CCCC1 [Example 54, N-(1-cyclopropylpiperidine-4-yl)-6-methoxy-2-(pyrrolidine-1-yl)-7-(4-(pyrrolidine-1-yl)-1-butyne-1-yl)quinazoline-4-amine]"
21,< 100,"COc1cc2c(NC3CCN(C(C)C)CC3)nc(N3CC[C@H](F)C3)nc2cc1C#CCCN1CCCC1 [Example 57, (S)-2-(3-fluoropyrrolidine-1-yl)-N-(1-isopropylpiperidine-4-yl)-6-methoxy-7-(4-(pyrrolidine-1-yl)-1-butyne-1-yl)quinazoline-4-amine]"
22,< 100,"COc1cc2c(NC3CCN(C(C)C)CC3)nc(N3CC(F)C3)nc2cc1C#CCCN1CCCC1 [Example 59, 2-(3-fluoroazetidine-1-yl)-N-(1-isopropylpiperidine-4-yl)-6-methoxy-7-(4-(pyrrolidine-1-yl)-1-butyne-1-yl)quinazoline-4-amine]"
23,< 100,"COc1cc2c(NCCN(C)C)nc(N(C)C)nc2cc1C#CCCN1CCCC1 [Example 61, N4-(2-(dimethylamino)ethyl)-6-methoxy-N2,N2-dimethyl-7-(4-(pyrrolidine-1-yl)-1-butyne-1-yl)quinazoline-2,4-diamine]"
24,< 100,"COc1cc2c(NCCN(C)C)nc(N3CCCN(C)CC3)nc2cc1C#CCCN1CCCC1 [Example 62, N1-(6-methoxy-2-(4-methyl-1,4-diazepane-1-yl)-7-(4-(pyrrolidine-1-yl)-1-butyne-1-yl)quinazoline-4-yl)-N2,N2-dimethylethane-1,2-diamine]"
25,< 100,"CCN1CCC(Nc2nc(N(C)C)nc3cc(C#CCCN4CCCC4)c(OC)cc23)CC1 [Example 63, N4-(1-ethylpiperidine-4-yl)-6-methoxy-N2,N2-dimethyl-7-(4-(-pyrrolidine-1-yl)-1-butyne-1-yl)quinazoline-2,4-diamine]"
26,< 100,"CCN1CCC(Nc2nc(N3CCCC3)nc3cc(C#CCCN4CCCC4)c(OC)cc23)CC1 [Example 64, N-(1-ethylpiperidine-4-yl)-6-methoxy-2-(pyrrolidine-1-yl)-7-(4-(pyrrolidine-1-yl)-1-butyne-1-yl)quinazoline-4-amine]"
27,< 100,"CCN1CCC(Nc2nc(N3CCCN(C)CC3)nc3cc(C#CCCN4CCCC4)c(OC)cc23)CC1 [Example 65, N-(1-ethylpiperidine-4-yl)-6-methoxy-2-(4-methyl-1,4-diazepane-1-yl)-7-(4-(pyrrolidine-1-yl)-1-butyne-1-yl) quinazoline-4-amine]"
28,< 100,"COc1cc2c(NC3CCN(C(C)C)CC3)nc(N3CCCCC3)nc2cc1/C=C/CCN1CCCCC1 [Example 66, (E)-N-(1-isopropylpiperidine-4-yl)-6-methoxy-2-(piperidine-1-yl)-7-(4-(piperidine-1-yl)-1-butene-1-yl)quinazoline-4-amine]"
